Patent publication US20210254138A1, “SIALIC ACID TRANSPORTER PROTEINS AS BIOMARKERS AND DRUG TARGETS” (Quadram Institute Bioscience, priority 2018, published 2021)

Experiments:
[1] = biological target: RgSBP (RUMGNA_02698); solute-binding protein of the sialic acid ABC transporter, full-length excluding the signal sequence (residues 1-29), N-terminal His-tag …; test: Isothermal titration calorimetry (ITC) of 2,7-anhydro-Neu5Ac binding to RgSBP (FIG. 4A); design: species or system Ruminococcus gnavus ATCC 29149; conditions: 50 mM Tris-HCl pH 7.5, cell protein 100 μM, syringe ligand 2 mM, single-binding site model
Excerpt: The Nan cluster in R. gnavus ATCC 29149 is predicted to encode a putative sialic acid transporter of the SAT2 family, with RUMGNA_02698 predicted to be a solute binding protein (SBP) and RUMGNA_02697 and 02696 predicted to be two permeases (Crost et al., 2013; 2016). To determine the ligand specificity of R. gnavus SBP protein (RgSBP), the corresponding gene was amplified by PCR from the R. gnavus ATCC 29149 genome, cloned and heterologously expressed in E. coli and the His6-tag recombinant protein purified by immobilised metal ion affinity chromatography (IMAC).
The affinity of the interaction between RgSBP and sialic acid ligands was further assessed by ITC.
The full-length RgSBP excluding the signal sequence (residues 1-29), the full length RgNanA and full length RUMGNA_02695 were amplified from R. gnavus ATCC 29149 gDNA, and cloned into the pHISTEV expression system, introducing a His-tag at the N terminus using primers listed in Table S1. DNA manipulation was carried out in E. coli DH5α cells. […] Protein purification was assessed by standard SDS-polyacrylamide gel electrophoresis using NuPAGE Novex 4-12% Bis-Tris gels (Life Technologies, Paisley, UK). Protein concentration was measured with NanoDrop 1000 UV-Vis
Spectrophotometer (Thermo Fischer Scientific, Wilmington, Del.) and using the extinction coefficient calculated by Protparam (ExPASy-Artimo, 2012) from the peptide sequence. […]

[2] = tested on: R. gnavus ATCC 29149 wild-type; test: Growth on sole carbon source, wild-type strain; type: cell-based; conditions: 11.1 mM in YCFA, anaerobic
Procedure: R. gnavus ATCC 29149 was routinely grown in an anaerobic cabinet (Don Whitley, Shipley, UK) in BHI-YH as previously described (Crost et al., 2013). Growth on single carbon sources utilized anaerobic basal YCFA medium (Duncan et al., 2002) supplemented with 11.1 mM of specific mono- or oligosaccharides (2,7-anhydro-Neu5Ac, 3'Sialyllactose (3'SL) or glucose). The bacteria were grown to late exponential phase for RNA extraction, the culture was performed in 14 ml tubes. Growth was determined spectrophotometrically by monitoring changes in optical density at […] compared to the same medium without bacterium (ΔOD595 nm) hourly for 10 hours.
(§1) The ability of the mutants to utilise sialic acids and sialoconjugates was assessed by supplementing YCFA with 11.1 mM of 2,7-anhydro-Neu5Ac, 3'SL, glucose or Neu5Ac in triplicate 200 μl cultures in 96-well microtiter plates. The OD595 nm was measured hourly for 10 h in an infinite F50 plate reader (Tecan, UK) housed within an anaerobic cabinet connected to Magellan V7.0 software.

[3] = tested on: R. gnavus ATCC 29149 nan deletion mutants; test: Growth on sole carbon source, nan deletion mutants; type: cell-based; conditions: 11.1 mM in YCFA, anaerobic
Excerpt: R. gnavus mutants were generated using the ClosTron methodology (Heap et al., 2010), which inserts an erythromycin resistance cassette into the gene of interest. Target sites were identified using the Pertuka method (Perutka et al., 2004). The re-targeted introns were synthesised and ligated into the pMTL007C-E2 vector by ATUM (MenloPark, USA). The plasmids were then transformed into E. coli CA434 using the heat-shock protocol, and the recombinant clones selected for chloramphenicol resistance. Recombinant E. coli cells were grown overnight in 10 ml LB, 1 ml of the overnight culture was pelleted and washed with PBS. The E. coli cell pellet was resuspended in 200 μl of an R. gnavus overnight culture and the cell suspension spotted onto a non-selective BHI-YH plate. […]
as §1

[4] = tested on: CC(=O)N[C@H]1[C@H]([C@H](O)[C@H](O)CO)OC(O)(C(=O)O)C[C@@H]1O; test: purified protein, by the assay type; conditions: other: substrate of RgNanA; Michaelis-Menten fit; pH 7.0
Procedure: Aldolase cleavage was measured by monitoring the decrease in absorbance at 340 nm (A340 nm) as NADH is converted to NAD by lactate dehydrogenase in a coupled reaction where pyruvate is released from sialic acid by the aldolase. Reactions were performed in a 100 μl volume with final concentrations of 150 μM NADH (Sigma, St Louis, USA), 0.5 U LDH (Sigma, St Louis, USA), 10 mM sialic acid (Neu5Ac or 2,7-anhydro-Neu5Ac) and 1.5 μg purified RgNanA or EcNanA (E. coli aldolase CAS: 9027-60-5, Carbosynth, UK) in 50 mM Na-phosphate buffer (pH 7.0). The reactions were performed at 37° C. and monitored using FLUOstar OPTIMA (BMG LABTECH). For kinetics experiments, the sialic acid concentration was varied at 20, 10, 5, 4, 2, 1, 0.4, 0.2, 0.1 mM and the initial rate of reaction determined for each concentration in triplicate before analysis was performed by fitting the data to a Michaelis-Menten using Graph Pad Prism (V 5.03).
The substrate specificity of RgNanA was determined using a coupled activity assay where pyruvate released during the conversion of sialic acid to ManNAc is converted to lactate by a lactate dehydrogenase and the subsequent loss of absorbance at 340 nm measured as NADH is converted to NAD^+. A commercially available E. coli sialic acid aldolase (EcNanA) was included as a control and enzymes were tested for activity against 2,7-anhydro-Neu5Ac and Neu5Ac. […] The kinetic parameters of RgNanA were determined by calculating the initial rate of reaction with increasing Neu5Ac concentrations. A Michaelis-Menten curve was fitted to the data and kinetic parameters determined (FIG. 7b).

CC(=O)NC1C(O)CC2(C(=O)O)OC(C(O)CO)C1O2 (centres unmarked) [2,7-anhydro-Neu5Ac]
Kd [1]: 2.24 µM

CC(=O)N[C@H]1[C@H]([C@H](O)[C@H](O)CO)O[C@@](O[C@H]2[C@@H](O)[C@@H](CO)O[C@@H](O[C@H]3[C@H](O)[C@@H](O)C(O)O[C@@H]3CO)[C@@H]2O)(C(=O)O)C[C@@H]1O (some centres unmarked) [3'SL, 3'-sialyllactose]
utilisation as a sole carbon source (growth) [2]: able to utilise
growth on substrate as sole carbon source [3]: no growth was detected

RgNanA (RUMGNA_02692, sialic acid aldolase) (Mediterraneibacter gnavus ATCC 29149)
Km [4]: 1473 ± 98 µM
kcat [4]: 2.757 ± 0.033 s⁻¹
